Source: ChEMBL document CHEMBL1134843, “Tyrosine kinase inhibitors. 18. 6-Substituted 4-anilinoquinazolines and 4-anilinopyrido[3,4-d]pyrimidines as soluble, irreversible inhibitors of the epidermal growth factor receptor” (J Med Chem, 2001)
Each block holds one compound with its values, some of them ahead of it.

Columns and labels:
NCI-H125 [1] = assay: In vivo activity in H125 tumor bearing mice, maximum weight loss days 15-29; assay type: functional, Mus musculus
A-431 [2] = assay: In vivo activity in A431 tumor bearing mice, maximum dose (schedule 12-26 days); assay type: functional
A-431 [3] = assay: In vivo activity in A431 tumor bearing mice, maximum weight loss days 12-26; assay type: functional
NCI-H125 [4] = assay: In vivo activity in H125 tumor bearing mice, ratio of treated and control tumor mass day 29; assay type: functional, Mus musculus
A-431 [5] = assay: In vivo activity in A431 tumor bearing mice, ratio of treated and control tumor mass day 26; assay type: functional
NCI-H125 [6] = assay: In vivo activity in H125 tumor bearing mice, relative time required for treated and control tumors to reach 750 mg (schedule 15-29 days); assay type: functional, Mus musculus
NCI-H125 [7] = assay: In vivo activity in H125 tumor bearing mice, maximum dose (schedule 15-29 days); assay type: functional, Mus musculus
MCF7 [8] = assay: In vivo activity in MCF-7 tumor bearing mice, relative time required for treated and control tumors to reach 750 mg (schedule 17-31 days); assay type: functional
A-431 [9] = assay: In vivo activity in A431 tumor bearing mice, relative time required for treated and control tumors to reach 750 mg (schedule 12-26 days); assay type: functional
MCF7 [10] = assay: In vivo activity in MCF-7 tumor bearing mice, maximum dose (schedule 17-31 days); assay type: functional
[11] = biological target: Receptor tyrosine-protein kinase erbB-2 (Homo sapiens, UniProt P04626); assay: Inhibition of heregulin-stimulated autophosphorylation of erbB2 in MDA-MB 453 cells; assay type: cell-based
Receptor tyrosine-protein kinase erbB-2, sequence (P04626 whole entry): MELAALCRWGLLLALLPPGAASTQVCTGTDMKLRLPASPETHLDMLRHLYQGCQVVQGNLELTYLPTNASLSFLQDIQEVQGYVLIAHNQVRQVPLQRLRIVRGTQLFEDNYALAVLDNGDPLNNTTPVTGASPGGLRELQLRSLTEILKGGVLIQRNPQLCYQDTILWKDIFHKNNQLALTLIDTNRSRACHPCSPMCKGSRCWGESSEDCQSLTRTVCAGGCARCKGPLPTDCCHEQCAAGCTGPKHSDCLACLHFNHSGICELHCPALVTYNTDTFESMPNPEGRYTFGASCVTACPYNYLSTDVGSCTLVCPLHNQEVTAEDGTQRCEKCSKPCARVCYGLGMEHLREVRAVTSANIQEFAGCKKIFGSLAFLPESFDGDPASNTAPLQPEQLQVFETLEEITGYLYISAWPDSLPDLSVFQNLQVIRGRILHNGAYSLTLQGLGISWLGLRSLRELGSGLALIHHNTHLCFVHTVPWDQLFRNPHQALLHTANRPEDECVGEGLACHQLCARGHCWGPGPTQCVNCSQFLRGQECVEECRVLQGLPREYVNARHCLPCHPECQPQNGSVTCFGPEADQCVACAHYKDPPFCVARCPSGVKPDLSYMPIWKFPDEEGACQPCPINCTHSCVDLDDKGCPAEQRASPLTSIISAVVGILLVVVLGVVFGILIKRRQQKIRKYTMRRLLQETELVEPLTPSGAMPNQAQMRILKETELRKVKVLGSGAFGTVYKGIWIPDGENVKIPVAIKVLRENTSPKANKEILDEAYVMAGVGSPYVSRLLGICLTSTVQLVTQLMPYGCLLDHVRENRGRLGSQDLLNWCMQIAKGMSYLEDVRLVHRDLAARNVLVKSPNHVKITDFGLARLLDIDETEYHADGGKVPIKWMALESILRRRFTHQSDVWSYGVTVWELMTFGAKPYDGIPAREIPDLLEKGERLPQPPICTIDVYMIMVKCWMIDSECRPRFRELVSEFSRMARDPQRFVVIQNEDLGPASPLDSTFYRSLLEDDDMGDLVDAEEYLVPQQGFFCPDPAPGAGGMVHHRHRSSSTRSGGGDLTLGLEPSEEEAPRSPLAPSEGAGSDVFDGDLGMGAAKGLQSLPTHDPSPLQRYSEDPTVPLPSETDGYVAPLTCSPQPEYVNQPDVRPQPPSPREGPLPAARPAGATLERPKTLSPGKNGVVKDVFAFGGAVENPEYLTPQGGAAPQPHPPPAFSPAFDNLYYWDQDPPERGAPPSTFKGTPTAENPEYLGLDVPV

MCF7 [12] = assay: In vivo activity in MCF-7 tumor bearing mice, ratio of treated and control tumor mass day 31; assay type: functional
MCF7 [13] = assay: In vivo activity in MCF-7 tumor bearing mice, ratio of treated and control tumor mass day 25; assay type: functional
MCF7 [14] = assay: In vivo activity in MCF-7 tumor bearing mice, relative time required for treated and control tumors to reach 750 mg (schedule 11-25 days); assay type: functional
A-431 [15] = assay: In vivo activity in A431 tumor bearing mice, maximum dose (schedule 10-24 days); assay type: functional
MCF7 [16] = assay: In vivo activity in MCF-7 tumor bearing mice, maximum dose (schedule 11-25 days); assay type: functional
MCF7 [17] = assay: In vivo activity in MCF-7 tumor bearing mice, maximum weight loss days 11-25; assay type: functional
[18] = biological target: Epidermal growth factor receptor (Homo sapiens, UniProt P00533)
Epidermal growth factor receptor, sequence (P00533 whole entry): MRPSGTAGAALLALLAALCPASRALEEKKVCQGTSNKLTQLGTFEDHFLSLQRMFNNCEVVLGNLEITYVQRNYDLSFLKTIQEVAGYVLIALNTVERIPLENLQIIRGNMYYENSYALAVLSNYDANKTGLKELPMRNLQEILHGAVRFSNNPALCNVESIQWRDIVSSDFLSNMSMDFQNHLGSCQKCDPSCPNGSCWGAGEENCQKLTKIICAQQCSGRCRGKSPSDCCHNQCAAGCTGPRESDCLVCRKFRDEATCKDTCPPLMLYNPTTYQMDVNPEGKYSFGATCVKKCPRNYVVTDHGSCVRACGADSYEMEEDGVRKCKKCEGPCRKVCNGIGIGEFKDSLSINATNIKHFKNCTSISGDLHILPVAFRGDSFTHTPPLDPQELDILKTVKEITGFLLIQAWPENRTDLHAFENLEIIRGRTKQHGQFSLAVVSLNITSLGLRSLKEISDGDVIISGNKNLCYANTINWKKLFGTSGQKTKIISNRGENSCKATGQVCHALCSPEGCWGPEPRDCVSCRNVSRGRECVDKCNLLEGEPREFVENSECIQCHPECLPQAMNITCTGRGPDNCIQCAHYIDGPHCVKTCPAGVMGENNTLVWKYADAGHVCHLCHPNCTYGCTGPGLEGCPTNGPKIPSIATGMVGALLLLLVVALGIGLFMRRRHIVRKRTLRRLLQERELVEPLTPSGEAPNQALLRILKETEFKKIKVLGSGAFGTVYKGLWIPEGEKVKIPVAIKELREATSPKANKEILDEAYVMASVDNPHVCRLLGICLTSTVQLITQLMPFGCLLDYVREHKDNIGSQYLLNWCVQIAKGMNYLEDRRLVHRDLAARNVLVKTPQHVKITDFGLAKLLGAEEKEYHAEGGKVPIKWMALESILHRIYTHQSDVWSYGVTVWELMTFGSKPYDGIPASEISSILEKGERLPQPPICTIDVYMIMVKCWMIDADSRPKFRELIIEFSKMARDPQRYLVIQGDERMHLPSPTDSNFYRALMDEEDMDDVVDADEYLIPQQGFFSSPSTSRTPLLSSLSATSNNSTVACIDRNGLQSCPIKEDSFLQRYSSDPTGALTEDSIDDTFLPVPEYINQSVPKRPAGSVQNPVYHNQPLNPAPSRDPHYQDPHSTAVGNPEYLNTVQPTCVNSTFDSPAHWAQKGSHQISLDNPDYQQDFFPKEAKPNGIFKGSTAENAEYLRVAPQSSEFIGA
Description: Inhibition of phosphorylation of a polyglutamic acid/tyrosine random copolymer by EGFR enzyme (from human A431 carcinoma cell vesicles)

SMILES: O=C(/C=C/C(=O)Nc1cc2c(Nc3ccc(F)c(Cl)c3)ncnc2cn1)NCCCN1CCOCC1
Weight change (NCI-H125 [1]): -0.3 g
HDT (A-431 [2]): 200 mg/kg
Weight change (A-431 [3]): -0.1 g
T/C (NCI-H125 [4]): 23%
T/C (A-431 [5]): 70%
T-C (NCI-H125 [6]): 7.9 days
HDT (NCI-H125 [7]): 200 mg/kg
T-C (MCF7 [8]): 6.8 days
T-C (A-431 [9]): 5.2 days
HDT (MCF7 [10]): 200 mg/kg
IC50 [11]: 24 nM
T/C (MCF7 [12]): 124%

SMILES: C=CC(=O)N(C)c1cc2c(Nc3cccc(Br)c3)ncnc2cn1
T/C (MCF7 [13]): 88%
Weight change (NCI-H125 [1]): -0.4 g
T-C (MCF7 [14]): 1.5 days
Weight change (A-431 [3]): -0.1 g
T/C (NCI-H125 [4]): 56%
HDT (A-431 [15]): 200 mg/kg
T/C (A-431 [5]): 62%
T-C (NCI-H125 [6]): 7.3 days
HDT (NCI-H125 [7]): 200 mg/kg
HDT (MCF7 [16]): 200 mg/kg
Weight change (MCF7 [17]): -0.3 g
T-C (A-431 [9]): 5.2 days

SMILES: O=S(=O)(CCO)c1cc2c(Nc3cccc(Br)c3)ncnc2cn1
IC50 [18]: 93.5 nM

SMILES: O=C(/C=C/C(=O)Nc1cc2c(Nc3cccc(Br)c3)ncnc2cn1)NCCCN1CCOCC1
IC50 [11]: 5 nM

Next, values leading:

IC50 [11]: 207 nM
SMILES: CN(C)CCCNC(=O)/C=C/C(=O)Nc1ccc2ncnc(Nc3cccc(Br)c3)c2c1

IC50 [11]: 13 nM
SMILES: CN(C)CCCNC(=O)/C=C/C(=O)Nc1cc2c(Nc3cccc(Br)c3)ncnc2cn1

IC50 [11]: 14 nM
SMILES: CCN(CC)CCCNC(=O)/C=C/C(=O)Nc1cc2c(Nc3cccc(Br)c3)ncnc2cn1

IC50 [11]: 8.1 nM
SMILES: O=C(/C=C/C(=O)Nc1cc2c(Nc3cccc(Br)c3)ncnc2cn1)NCCCn1ccnc1
